According to PubChem BioAssay AID256 (DTP/NCI, 2004):
“And” between values parts separate entries of the source, which are not always exact repeats. Identical values can stand only once. Toxic doses and inconclusive results are not listed.

Tested on: CD2F1 mice, L1210 leukemia ip, survival T/C
Experiment: NCI In Vivo Anticancer Drug Screen. Data for tumor model L1210 Leukemia (intraperitoneal) in CD2F1 (CDF1) mice
Details: higher = longer survival
Method in brief: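 Activity against a transplanted murine tumor was judged by comparing the compound group with a vehicle group. The outcome in the treated animals was divided by that in the controls.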

[1] = endpoint: mean survival time, dose: 100.0 mg/kg/injection, schedule: Q04DX003 (ip), vehicle: saline with Tween-80
[2] = endpoint: mean survival time, dose: 200.0 mg/kg/injection, schedule: Q04DX003 (ip), vehicle: saline with Tween-80
[3] = endpoint: mean survival time, dose: 400.0 mg/kg/injection, schedule: Q01DX001 (ip), vehicle: saline with Tween-80
[4] = endpoint: mean survival time, dose: 400.0 mg/kg/injection, schedule: Q04DX003 (ip), vehicle: saline with Tween-80

SMILES: CC1CNC(Cl)O1 (stereo not given)
- T/C [1]: 87 % of control
- T/C [2]: 105 % of control

SMILES: CCCC(=O)Oc1ccc(/C=N/NC(N)=S)nc1
- T/C (endpoint: mean survival time, dose: 100.0 mg/kg/injection, schedule: Q01DX009 (ip), vehicle: saline with Tween-80): 182 % of control
- T/C (endpoint: mean survival time, dose: 100.0 mg/kg/injection, schedule: Q04DX002 (ip), vehicle: saline with Tween-80): 115 % of control
- T/C (endpoint: mean survival time, dose: 178.0 mg/kg/injection, schedule: Q01DX001 (ip), vehicle: saline with Tween-80): 116 % of control
- T/C (endpoint: mean survival time, dose: 178.0 mg/kg/injection, schedule: Q04DX003 (ip), vehicle: saline with Tween-80): 118 % of control
- T/C (endpoint: mean survival time, dose: 200.0 mg/kg/injection, schedule: Q01DX009 (ip), vehicle: saline with Tween-80): 119 % of control
- T/C (endpoint: mean survival time, dose: 266.0 mg/kg/injection, schedule: Q01DX001 (ip), vehicle: saline with Tween-80): 113 % of control
- T/C (endpoint: mean survival time, dose: 266.0 mg/kg/injection, schedule: Q04DX003 (ip), vehicle: saline with Tween-80): 121 % of control
- T/C [3]: 95 % of control
- T/C [4]: 117 % of control
- T/C (endpoint: mean survival time, dose: 600.0 mg/kg/injection, schedule: Q01DX001 (ip), vehicle: saline with Tween-80): 124 % of control
- T/C (endpoint: mean survival time, dose: 900.0 mg/kg/injection, schedule: Q01DX001 (ip), vehicle: saline with Tween-80): 161 % of control
- T/C (endpoint: median survival time, dose: 36.0 mg/kg/injection, schedule: Q01DX005 (ip), vehicle: saline with Tween-80): 151 % of control
- T/C (endpoint: median survival time, dose: 50.0 mg/kg/injection, schedule: Q01DX009 (ip), vehicle: saline with Tween-80): 172 % of control
- T/C (endpoint: median survival time, dose: 60.0 mg/kg/injection, schedule: Q01DX005 (ip), vehicle: saline with Tween-80): 160 % of control
- T/C (endpoint: median survival time, dose: 100.0 mg/kg/injection, schedule: Q01DX005 (ip), vehicle: saline with Tween-80): 162 % of control
- T/C (endpoint: median survival time, dose: 100.0 mg/kg/injection, schedule: Q01DX009 (ip), vehicle: saline with Tween-80): 156 % of control and 247 % of control
- T/C (endpoint: median survival time, dose: 166.67 mg/kg/injection, schedule: Q01DX005 (ip), vehicle: saline with Tween-80): 112 % of control
- T/C (endpoint: median survival time, dose: 200.0 mg/kg/injection, schedule: Q01DX009 (ip), vehicle: saline with Tween-80): 164 % of control and 190 % of control
- T/C (endpoint: median survival time, dose: 400.0 mg/kg/injection, schedule: Q01DX009 (ip), vehicle: saline with Tween-80): 113 % of control and 107 % of control

SMILES: CCCCCCCCSCC(CSCCCCCCCC)(CSCCCCCCCC)CSCCCCCCCC
- T/C (endpoint: mean survival time, dose: 100.0 mg/kg/injection, schedule: Q01DX001 (ip), vehicle: saline with Tween-80): 101 % of control
- T/C (endpoint: mean survival time, dose: 200.0 mg/kg/injection, schedule: Q01DX001 (ip), vehicle: saline with Tween-80): 93 % of control
- T/C [3]: 93 % of control

SMILES: O=C(COc1cccc(Cl)c1)NCc1ccc(Cl)cc1
- T/C [1]: 99 % of control
- T/C [2]: 101 % of control
- T/C [4]: 91 % of control

SMILES: C=C1C(=O)OC2/C=C(\C)CC/C=C(/C=O)C(OC(=O)C(C)C)C(O)C12 (stereo not given)
- T/C (endpoint: mean survival time, dose: 1.0 mg/kg/injection, schedule: Q01DX009 (ip), vehicle: saline with Tween-80): 113 % of control and 103 % of control
- T/C (endpoint: mean survival time, dose: 2.0 mg/kg/injection, schedule: Q01DX009 (ip), vehicle: saline with Tween-80): 103 % of control and 105 % of control and 107 % of control
- T/C (endpoint: mean survival time, dose: 4.0 mg/kg/injection, schedule: Q01DX009 (ip), vehicle: saline with Tween-80): 97 % of control and 100 % of control and 107 % of control
- T/C (endpoint: mean survival time, dose: 8.0 mg/kg/injection, schedule: Q01DX009 (ip), vehicle: saline with Tween-80): 102 % of control and 109 % of control and 112 % of control
- T/C (endpoint: mean survival time, dose: 16.0 mg/kg/injection, schedule: Q01DX009 (ip), vehicle: saline with Tween-80): 92 % of control and 96 % of control

SMILES: Cc1c(N=O)c(C)[n+]([O-])n1O
- T/C (endpoint: mean survival time, dose: 50.0 mg/kg/injection, schedule: Q01DX009 (ip), vehicle: Klucel (hydroxypropylcellulose) (HPC)): 89 % of control
- T/C (endpoint: mean survival time, dose: 100.0 mg/kg/injection, schedule: Q01DX009 (ip), vehicle: Klucel (hydroxypropylcellulose) (HPC)): 97 % of control
- T/C (endpoint: mean survival time, dose: 200.0 mg/kg/injection, schedule: Q01DX009 (ip), vehicle: Klucel (hydroxypropylcellulose) (HPC)): 97 % of control
